Test results published in patent publication US8192962B2, “Processes for detecting toxic substances” (Daikin Industries, Ltd., priority 2001, dated 2012).

Test system: Genes belonging to other category
Assay: DNA chip mRNA expression in yeast, genes belonging to other category (Table 9)
Type: cell-based, Saccharomyces cerevisiae S288C
Description: Yeast (Saccharomyces cerevisiae S288C (α SUC2mal mel gap2 CUP1)) were incubated at 25° C. on YPD medium (yeast extract 1%, polypepton 2%, glucose 2%). One of toxic chemical substances was added to the cells at logarithmic growth phase, and the cells were further incubated for two hours. Cells were cultured without any chemical substance in the same condition, and were used as control. Concentrations of the chemical substances were defined to inhibit the growth of the yeast but not lead to death.
After completion of the incubation, the culture was centrifuged to collect the cells. To the cells, sodium acetate buffer (50 mM sodium acetate, 10 mM EDTA, 1% SDS) was added, and the mixture was shaken at 65° C. for five minutes, followed by returning to room temperature, and obtaining the supernatant, of which the procedures were repeated two times. To the supernatant, ½ amount of a solution of phenol/chloroform was added, and the mixture was centrifuged to give a supernatant, which was added with an equal amount of chloroform, and the mixture was centrifuged to give a supernatant. To the supernatant, an equal amount of isopropanol containing 0.3 M sodium acetate was added, and the mixture was allowed to stand at room temperature for 30 minutes, after which the mixture was centrifuged to give a sediment of the whole RNAs. Seventy % ethanol was added to the sediment, and the mixture was again centrifuged to give a sediment, which was then dried and dissolved in water. mRNA was isolated from the whole RNAs as followings. In view of the fact that a poly A chain is attached to the 3′ terminus of mRNA, a polynucleotide having a poly T structure which was immobilized on the surface of latex beads was used to trap the mRNA, and then the mRNA was washed and eluted with spine column (Oligotex-dT30<Super>mRNA Purification Kit, Takara). Reverse transcription of the mRNA was conducted with a reverse transcriptase (Super Script II Reverse Transcriptase; catalogue No. 18064-014, GibcoBRL) using fluorescence-labeled nucleotides to give cDNAs that were introduced with Cy3-dUTP or Cy5-dUTP during the reverse transcription.
The labeled cDNAs were dissolved in TE buffer (10mM Tris-HCl/1 mM EDTA, pH8.0), and the solution was dropped on the DNA chip containing the whole genes of yeast (DNA Chip Research Inc. Japan) so that the cDNAs were hybridized on the DNA chip at 65° C. for over 12 hours. The fluoresces intensity of the DNA chip was read with a scanner, and the ratio relative to the fluorescence intensity resulting from the absence of chemical substance was estimated as the following, which is shown in Tables 1 to 9: […]

## CN(C)C(=S)SSC(=S)N(C)C [(10), Tetramethylthiuram disulfide]
Yeast gene YMR314W
  The level of expressed mRNA in the presence of chemical substance/The level of expressed mRNA in the absence of chemical substance: 2.7
Yeast gene YNL006W
  The level of expressed mRNA in the presence of chemical substance/The level of expressed mRNA in the absence of chemical substance: 4.0
Yeast gene YNL007C
  The level of expressed mRNA in the presence of chemical substance/The level of expressed mRNA in the absence of chemical substance: 1.7
Yeast gene YNL083W
  The level of expressed mRNA in the presence of chemical substance/The level of expressed mRNA in the absence of chemical substance: 1.6
Yeast gene YNL093W
  The level of expressed mRNA in the presence of chemical substance/The level of expressed mRNA in the absence of chemical substance: 2.0
Yeast gene YNL135C
  The level of expressed mRNA in the presence of chemical substance/The level of expressed mRNA in the absence of chemical substance: 0.5
Yeast gene YNL139C
  The level of expressed mRNA in the presence of chemical substance/The level of expressed mRNA in the absence of chemical substance: 0.7
Yeast gene YNL333W
  The level of expressed mRNA in the presence of chemical substance/The level of expressed mRNA in the absence of chemical substance: 2.1
Yeast gene YNR010W
  The level of expressed mRNA in the presence of chemical substance/The level of expressed mRNA in the absence of chemical substance: 0.9
Yeast gene YNR069C
  The level of expressed mRNA in the presence of chemical substance/The level of expressed mRNA in the absence of chemical substance: 5.8
Yeast gene YOL013C
  The level of expressed mRNA in the presence of chemical substance/The level of expressed mRNA in the absence of chemical substance: 1.0
Yeast gene YOL038W
  The level of expressed mRNA in the presence of chemical substance/The level of expressed mRNA in the absence of chemical substance: 2.7
Yeast gene YOL164W
  The level of expressed mRNA in the presence of chemical substance/The level of expressed mRNA in the absence of chemical substance: 3.6
Yeast gene YOR028C
  The level of expressed mRNA in the presence of chemical substance/The level of expressed mRNA in the absence of chemical substance: 2.0
Yeast gene YOR036W
  The level of expressed mRNA in the presence of chemical substance/The level of expressed mRNA in the absence of chemical substance: 1.9
Yeast gene YOR058C
  The level of expressed mRNA in the presence of chemical substance/The level of expressed mRNA in the absence of chemical substance: 4.5
Yeast gene YOR117W
  The level of expressed mRNA in the presence of chemical substance/The level of expressed mRNA in the absence of chemical substance: 1.8
Yeast gene YOR124C
  The level of expressed mRNA in the presence of chemical substance/The level of expressed mRNA in the absence of chemical substance: 1.9
Yeast gene YOR132W
  The level of expressed mRNA in the presence of chemical substance/The level of expressed mRNA in the absence of chemical substance: 1.6
Yeast gene YOR149C
  The level of expressed mRNA in the presence of chemical substance/The level of expressed mRNA in the absence of chemical substance: 1.0
Yeast gene YOR157C
  The level of expressed mRNA in the presence of chemical substance/The level of expressed mRNA in the absence of chemical substance: 2.6
Yeast gene YOR181W
  The level of expressed mRNA in the presence of chemical substance/The level of expressed mRNA in the absence of chemical substance: 0.5
Yeast gene YOR185C
  The level of expressed mRNA in the presence of chemical substance/The level of expressed mRNA in the absence of chemical substance: 2.9
Yeast gene YOR198C
  The level of expressed mRNA in the presence of chemical substance/The level of expressed mRNA in the absence of chemical substance: 1.4
Yeast gene YOR259C
  The level of expressed mRNA in the presence of chemical substance/The level of expressed mRNA in the absence of chemical substance: 1.5
Yeast gene YOR261C
  The level of expressed mRNA in the presence of chemical substance/The level of expressed mRNA in the absence of chemical substance: 2.5
Yeast gene YOR285W
  The level of expressed mRNA in the presence of chemical substance/The level of expressed mRNA in the absence of chemical substance: 2.9
Yeast gene YOR288C
  The level of expressed mRNA in the presence of chemical substance/The level of expressed mRNA in the absence of chemical substance: 1.0
Yeast gene YOR298W
  The level of expressed mRNA in the presence of chemical substance/The level of expressed mRNA in the absence of chemical substance: 1.0
Yeast gene YOR355W
  The level of expressed mRNA in the presence of chemical substance/The level of expressed mRNA in the absence of chemical substance: 0.8
Yeast gene YOR383C
  The level of expressed mRNA in the presence of chemical substance/The level of expressed mRNA in the absence of chemical substance: 4.5
Yeast gene YPL001W
  The level of expressed mRNA in the presence of chemical substance/The level of expressed mRNA in the absence of chemical substance: 1.0
Yeast gene YPL020C
  The level of expressed mRNA in the presence of chemical substance/The level of expressed mRNA in the absence of chemical substance: 1.6
Yeast gene YPL089C
  The level of expressed mRNA in the presence of chemical substance/The level of expressed mRNA in the absence of chemical substance: 2.5
Yeast gene YPL109C
  The level of expressed mRNA in the presence of chemical substance/The level of expressed mRNA in the absence of chemical substance: 1.5
Yeast gene YPL124W
  The level of expressed mRNA in the presence of chemical substance/The level of expressed mRNA in the absence of chemical substance: 1.0
Yeast gene YPL149W
  The level of expressed mRNA in the presence of chemical substance/The level of expressed mRNA in the absence of chemical substance: 3.7
Yeast gene YPL154C
  The level of expressed mRNA in the presence of chemical substance/The level of expressed mRNA in the absence of chemical substance: 1.7
Yeast gene YPL177C
  The level of expressed mRNA in the presence of chemical substance/The level of expressed mRNA in the absence of chemical substance: 1.0
Yeast gene YPL220W
  The level of expressed mRNA in the presence of chemical substance/The level of expressed mRNA in the absence of chemical substance: 0.5
Yeast gene YPL230W
  The level of expressed mRNA in the presence of chemical substance/The level of expressed mRNA in the absence of chemical substance: 2.7
Yeast gene YPR081C
  The level of expressed mRNA in the presence of chemical substance/The level of expressed mRNA in the absence of chemical substance: 2.6
Yeast gene YPR103W
  The level of expressed mRNA in the presence of chemical substance/The level of expressed mRNA in the absence of chemical substance: 2.0
Yeast gene YPR108W
  The level of expressed mRNA in the presence of chemical substance/The level of expressed mRNA in the absence of chemical substance: 2.8
Yeast gene YPR149W
  The level of expressed mRNA in the presence of chemical substance/The level of expressed mRNA in the absence of chemical substance: 1.8
Yeast gene YPR168W
  The level of expressed mRNA in the presence of chemical substance/The level of expressed mRNA in the absence of chemical substance: 2.7
